# Results as given in ChEMBL document CHEMBL1139379, “Design, structure-activity relationships and in vivo characterization of 4-amino-3-benzimidazol-2-ylhydroquinolin-2-ones: a novel class of receptor tyrosine kinase inhibitors” (J Med Chem, 2009).
# What was measured:
# [1] = tested on: MV4-11; assay: Antitumor activity against human MV4-11 cells xenografted SCID-NOD mouse; assay type: functional
# [2] = tested on: DU-145; assay: Antitumor activity against FGFR expressing human DU145 cells xenografted nude mouse assessed as tumor growth inhibition at 100 mg/kg/day, po; assay type: functional; details: read-out: TGI
# [3] = Clearance in mouse at 5 mg/kg, iv; assay type: ADME, organism-based; parameters: dose 5 mg/kg, route intravenous; details: in vivo
# [4] = tested on: MV4-11; assay: Antitumor activity against cKit expressing human MV4-11 cells xenografted SCID-NOD mouse assessed as tumor growth inhibition at 10 mg/kg/day, po; assay type: functional; details: read-out: TGI
# [5] = Antitumor activity against PDGFRbeta expressing human KM12L4A cells xenografted nude mouse assessed as tumor growth inhibition at 100 mg/kg/day, po; assay type: functional; details: read-out: TGI
# [6] = Oral bioavailability in mouse at 20 mg/kg; assay type: ADME, organism-based; details: in vivo
# [7] = tested on: MV4-11; assay: Antitumor activity against PDGFRbeta expressing human MV4-11 cells xenografted SCID-NOD mouse assessed as tumor growth inhibition at 30 mg/kg/day, po; assay type: functional; details: read-out: TGI
# [8] = Half life in mouse at 5 mg/kg, iv; assay type: ADME, organism-based; parameters: dose 5 mg/kg, route intravenous; details: in vivo
# [9] = tested on: MV4-11; assay: Antitumor activity against FLT3 ITD expressing human MV4-11 cells xenografted SCID-NOD mouse assessed as tumor growth inhibition at 1 mg/kg/day, po; assay type: functional; details: read-out: TGI
# [10] = tested on: Mus musculus; assay: Antiangiogenic activity in BDF1 mouse Matrigel model assessed as inhibition of bFGF-mediated angiogenesis at 3 mg/kg, po for 8 days by colorimetric assay; assay type: functional; parameters: scale not given: the % may be the effect or the level left
# [11] = tested on: DU-145; assay: Antitumor activity against VEGFR expressing human DU145 cells xenografted nude mouse assessed as tumor growth inhibition at 10 mg/kg/day, po; assay type: functional; details: read-out: TGI
# [12] = Inhibition of VEGF-mediated proliferation of HMVEC after 72 hrs; assay type: functional, cell-based; details: Homo sapiens
# [13] = Cmax in rat at 20 mg/kg, po; assay type: ADME, organism-based; parameters: dose 20 mg/kg, route oral; details: in vivo
# [14] = tested on: DU-145; assay: Antitumor activity against PDGFRbeta expressing human DU145 cells xenografted nude mouse assessed as tumor growth inhibition at 30 mg/kg/day, po; assay type: functional; details: read-out: TGI
# [15] = tested on: DU-145; assay: Antitumor activity against human DU145 cells xenografted nude mouse; assay type: functional
# [16] = Antitumor activity against PDGFRbeta expressing human KM12L4A cells xenografted nude mouse assessed as tumor growth inhibition at 30 mg/kg/day, po; assay type: functional; details: read-out: TGI
# [17] = species on record: Mus musculus; assay: Antiangiogenic activity in BDF1 mouse Matrigel model assessed as inhibition of bFGF-mediated angiogenesis; assay type: functional
# [18] = Antitumor activity against human KM12L4A cells xenografted nude mouse; assay type: functional
# [19] = Volume of distribution at steady state in rat at 5 mg/kg, iv; assay type: ADME, organism-based; parameters: dose 5 mg/kg, route intravenous; details: in vivo, read-out: Vdss
# [20] = Cmax in mouse at 20 mg/kg, po; assay type: ADME, organism-based; parameters: dose 20 mg/kg, route oral; details: in vivo
# [21] = Half life in rat at 5 mg/kg, iv; assay type: ADME, organism-based; parameters: dose 5 mg/kg, route intravenous; details: in vivo
# [22] = Oral bioavailability in rat at 20 mg/kg; assay type: ADME, organism-based; details: in vivo
# [23] = Antitumor activity against VEGFR expressing human KM12L4A cells xenografted nude mouse assessed as tumor growth inhibition at 10 mg/kg/day, po; assay type: functional; details: read-out: TGI
# [24] = AUC in mouse at 20 mg/kg, po; assay type: ADME, organism-based; parameters: dose 20 mg/kg, route oral; details: plasma
# [25] = Clearance in rat at 5 mg/kg, iv; assay type: ADME, organism-based; parameters: dose 5 mg/kg, route intravenous; details: in vivo
# [26] = AUC in rat at 20 mg/kg, po; assay type: ADME, organism-based; parameters: dose 20 mg/kg, route oral; details: plasma
# [27] = Volume of distribution at steady state in mouse at 5 mg/kg, iv; assay type: ADME, organism-based; parameters: dose 5 mg/kg, route intravenous; details: in vivo, read-out: Vdss
# [28] = tested on: MV4-11; assay: Antitumor activity against VEGFR expressing human MV4-11 cells xenografted SCID-NOD mouse assessed as tumor growth inhibition at 5 mg/kg/day, po; assay type: functional; details: read-out: TGI
smiles,measurement,setting,value
CN1CCN(c2ccc3nc(-c4c(N)c5c(F)cccc5[nH]c4=O)[nH]c3c2)CC1 [DOVITINIB],ED50,[1],3 mg/kg
same,minimal effective dose,[1]; read-out: MED,1 mg/kg
same,inhibition in vivo at 100 mg/kg/day,[2],86%
same,clearance,[3],42 mL/min/kg
same,inhibition in vivo at 10 mg/kg/day,[4],92%
same,inhibition in vivo at 100 mg/kg/day,[5],95%
same,bioavailability,[6],77%
same,inhibition in vivo at 30 mg/kg/day,[7],96%
same,half-life,[8],2.7 h
same,inhibition in vivo at 1 mg/kg/day,[9],23%
same,Activity,[10],54%
same,inhibition in vivo at 10 mg/kg/day,[11],39%
same,EC50,[12],13 nM
same,Cmax,[13],480 ng/mL
same,inhibition in vivo at 30 mg/kg/day,[14],70%
same,ED50,[15],23 mg/kg
same,minimal effective dose,[15]; read-out: MED,30 mg/kg
same,inhibition in vivo at 30 mg/kg/day,[16],55%
same,ED50,[17],3 mg/kg
same,ED50,[18],17 mg/kg
same,minimal effective dose,[18]; read-out: MED,10 mg/kg
same,Vd,[19],13 L/kg
same,Cmax,[20],670 ng/mL
same,half-life,[21],3.5 h
same,bioavailability,[22],73%
same,inhibition in vivo at 10 mg/kg/day,[23],44%
same,AUC,[24],6000 ng·h/mL
same,clearance,[25],43 mL/min/kg
same,AUC,[26],5670 ng·h/mL
same,Vd,[27],12 L/kg
same,inhibition in vivo at 5 mg/kg/day,[28],65%
